Several values for one entry are separate records, joined by “and”; a condition that tells them apart may be missing. Equal values may be shown once. Read-outs that look alike come from different tables or passages of the source.
Experiments:
non-expressing oocytes [1] = type: cell-based, Xenopus laevis
Method in brief: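 Oocytes (ten per treatment, ≥4 independent frogs/days) were preloaded by injecting VF-6 in 25 nL ND96 at pH 5.0, 5.5, 6.0 or 7.0, or Na^+-free choline buffer, then uptake run 1.5 h, 27.5 °C, ND96 pH 5.5 by default. Internal concentrations assumed ~400 nL oocyte volume.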

PfCRT^Ecu1110 [2] = biological target: T1, PfCRT^Ecu1110 (Plasmodium falciparum, UniProt Q9N623, A220S/I356L/K76T/N326D); test: cell-based; type: cell-based; conditions: […]
T1 sequence (Q9N623 whole entry A220S/I356L/K76T/N326D): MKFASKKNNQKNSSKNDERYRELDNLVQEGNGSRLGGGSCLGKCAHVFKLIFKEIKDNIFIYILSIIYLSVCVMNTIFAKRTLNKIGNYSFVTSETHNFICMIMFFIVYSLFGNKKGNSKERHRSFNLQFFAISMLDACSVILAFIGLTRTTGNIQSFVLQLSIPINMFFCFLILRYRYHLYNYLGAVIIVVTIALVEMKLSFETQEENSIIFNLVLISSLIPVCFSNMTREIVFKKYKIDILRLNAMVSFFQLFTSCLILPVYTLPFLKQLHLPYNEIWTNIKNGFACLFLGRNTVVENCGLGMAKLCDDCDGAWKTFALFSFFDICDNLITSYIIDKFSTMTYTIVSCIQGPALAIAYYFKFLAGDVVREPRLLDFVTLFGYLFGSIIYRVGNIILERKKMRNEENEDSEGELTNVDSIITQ
Method in brief: (§1)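 Transport measured in Xenopus oocytes expressing the transporters, 1.5 h at 27.5 °C in ND96 pH 5.5 unless noted. For trans-stimulation, VF-6 injected in 25 nL ND96 at pH 5.0–7.0 or Na^+-free (choline) buffer; intracellular levels based on ~400 nL oocyte volume. Ten oocytes per treatment, ≥4 experiments.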

PfCRT^Dd2 [3] = biological target: T2, PfCRT^Dd2 (Plasmodium falciparum, UniProt Q9N623, A220S/I356T/K76T/M74I/N326S/N75E/Q271E/R371I); test: cell-based; type: cell-based; conditions: […]
T2 sequence (Q9N623 whole entry A220S/I356T/K76T/M74I/N326S/N75E/Q271E/R371I): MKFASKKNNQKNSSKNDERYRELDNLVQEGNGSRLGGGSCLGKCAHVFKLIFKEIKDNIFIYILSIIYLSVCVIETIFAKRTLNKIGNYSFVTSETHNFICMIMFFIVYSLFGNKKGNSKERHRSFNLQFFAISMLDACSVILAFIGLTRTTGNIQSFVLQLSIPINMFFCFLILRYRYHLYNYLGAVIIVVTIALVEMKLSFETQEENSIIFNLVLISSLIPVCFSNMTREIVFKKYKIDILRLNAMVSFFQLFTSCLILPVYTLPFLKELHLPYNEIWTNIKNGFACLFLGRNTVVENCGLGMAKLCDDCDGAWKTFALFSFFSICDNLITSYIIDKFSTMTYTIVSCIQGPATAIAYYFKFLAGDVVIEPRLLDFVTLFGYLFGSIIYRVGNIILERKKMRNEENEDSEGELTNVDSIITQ
Method in brief: as §1

PfNT1 = biological target: T3, PfNT1 (Plasmodium falciparum, UniProt Q8IDM6); test: cell-based; type: cell-based; conditions: […]
T3 construct: expressed in transfected cells; host or cells: Xenopus laevis oocytes (stage V-VI), cRNA-injected
T3 sequence (Q8IDM6 whole entry): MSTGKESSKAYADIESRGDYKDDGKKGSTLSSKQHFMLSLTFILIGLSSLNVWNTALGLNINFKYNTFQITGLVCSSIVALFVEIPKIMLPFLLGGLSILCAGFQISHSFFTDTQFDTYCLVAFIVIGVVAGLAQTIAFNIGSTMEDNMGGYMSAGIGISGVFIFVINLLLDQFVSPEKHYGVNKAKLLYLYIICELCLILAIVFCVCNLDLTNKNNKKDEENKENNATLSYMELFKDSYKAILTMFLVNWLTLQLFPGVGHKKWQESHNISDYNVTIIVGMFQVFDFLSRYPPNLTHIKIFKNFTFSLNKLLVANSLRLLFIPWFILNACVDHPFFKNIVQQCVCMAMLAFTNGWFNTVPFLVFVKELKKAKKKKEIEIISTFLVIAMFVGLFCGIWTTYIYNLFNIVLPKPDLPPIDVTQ
Method in brief: as §1

PfCRT^3D7 [4] = biological target: T4, PfCRT^3D7 (Plasmodium falciparum, UniProt Q8IBZ9); test: cell-based; type: cell-based
T4 sequence (Q8IBZ9 59-398): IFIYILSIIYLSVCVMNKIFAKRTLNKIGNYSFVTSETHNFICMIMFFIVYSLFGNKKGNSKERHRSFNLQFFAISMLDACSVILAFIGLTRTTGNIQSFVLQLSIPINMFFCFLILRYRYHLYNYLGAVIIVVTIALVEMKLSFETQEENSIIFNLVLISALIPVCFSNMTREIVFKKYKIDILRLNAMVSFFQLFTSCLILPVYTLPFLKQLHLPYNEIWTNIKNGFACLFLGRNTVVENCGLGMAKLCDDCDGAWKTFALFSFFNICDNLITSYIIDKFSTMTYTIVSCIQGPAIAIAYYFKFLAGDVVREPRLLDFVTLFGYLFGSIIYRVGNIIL
Method in brief: as §1

PfCRT [5] = test: Test of solutes as potential co-substrates for influx of VF-6 via PfCRT into the oocyte; type: cell-based, Plasmodium falciparum; design: key: X: Compounds that have been tested as potential co-substrates but are not required for influx of VF-6 via PfCRT into the oocyte; conditions: X = tested
non-expressing oocytes [6] = test: cells; type: cell-based, Xenopus laevis; conditions: Xenopus laevis, Oocyte
Method in brief: (§2)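 Oocytes expressing PfCRT isoforms, or non-expressing controls, were incubated 1.5 h at 27.5 °C in ND96 buffer pH 5.5 (96 mM NaCl, 2 mM KCl, 1 mM MgCl2, 1.8 mM CaCl2, 10 mM MES, 10 mM Tris-base), measuring uptake from acidic medium into cytosol. Oocytes were washed ice-cold, SDS-lysed and counted by scintillation.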

PfCRT^Ecu1110 [7] = biological target: T1, PfCRT^Ecu1110; test: [3H]CQ uptake into Xenopus oocytes, cis-inhibition by unlabelled solute; type: cell-based
Method in brief: as §2

PfCRT^Dd2 [8] = biological target: T2, PfCRT^Dd2; test: as above; type: cell-based
Method in brief: as §2

PfCRT [9] = test: Potential co-substrates tested for influx of VF-6 via PfCRT into the oocyte; type: cell-based, Plasmodium falciparum; design: key: X: Compounds that have been tested as potential co-substrates but are not required for influx of VF-6 via PfCRT into the oocyte
PfCRT^3D7 [10] = biological target: T4, PfCRT^3D7; test: cell-based; type: cell-based; remark: listed apart in the source
Method in brief: as §2

[11] = read-out: Uptake of [3H]CQ (% PfCRTDd2 control), trans-stimulation, PfNT1, SEM
[12] = read-out: Uptake of [3H]CQ (% PfNT1 control), trans-stimulation
[13] = read-out: PfCRT-mediated [3H]CQ transport, trans-stimulation (% PfCRT3D7 control)
[14] = read-out: Uptake of [3H]CQ (% PfCRT3D7 control), trans-stimulation
[15] = read-out: Uptake of [3H]CQ (% PfCRTDd2 control), trans-stimulation, PfCRT3D7, SEM
[16] = read-out: Uptake of [3H]CQ (% PfCRTDd2 control), cis-inhibition, non-expressing oocytes, SEM
[17] = read-out: Uptake of [3H]CQ (% non-expressing oocyte control), cis-inhibition
[18] = read-out: PfCRT-mediated [3H]CQ transport, cis-inhibition (% PfCRTEcu1110 control)
[19] = read-out: Uptake of [3H]CQ (% PfCRTDd2 control), cis-inhibition, PfCRTEcu1110, SEM
[20] = read-out: Uptake of [3H]CQ (% PfCRTEcu1110 control), cis-inhibition
[21] = read-out: [3H]CQ transport (% PfCRTEcu1110 control), cis-inhibition, PfCRTEcu1110, SEM
[22] = read-out: PfCRT-mediated [3H]CQ transport, cis-inhibition (% PfCRTDd2 control)
[23] = read-out: Uptake of [3H]CQ (% PfCRTDd2 control), cis-inhibition, PfCRTDd2, SEM
[24] = read-out: Uptake of [3H]CQ (% PfCRT3D7 control), cis-inhibition
[25] = read-out: Uptake of [3H]CQ (% PfCRTDd2 control), cis-inhibition, PfCRT3D7, SEM

**Q.** `CSCC[C@H](N)C(=O)O` [L-methionine] was tested. Which “Uptake of [3H]CQ (% non-expressing oocyte control), trans-stimulation” value (non-expressing oocytes [1]) did it give?
**A.** 99 ± 3.8 % non-expressing oocyte control and 98 ± 4.2 % non-expressing oocyte control

**Q.** And the “Uptake of [3H]CQ (% PfCRTDd2 control), trans-stimulation, non-expressing oocytes” value (non-expressing oocytes [1]; SEM)?
**A.** 2.4 ± 0.02 % PfCRTDd2 control and 2.8 ± 0.03 % PfCRTDd2 control

**Q.** And the activity at 5000 µM (PfCRT^Ecu1110 [2]; pH 5.5, read-out: Uptake of [3H]CQ (% PfCRTEcu1110 control), trans-stimulation, PfCRTEcu1110 oocytes, [test solute]i = 5 mM, total [3H]CQ transport, normalised to the oocyte type control)?
**A.** 98 ± 2.1%

**Q.** What about the activity at 45000 µM (PfCRT^Ecu1110 [2]; pH 5.5, read-out: Uptake of [3H]CQ (% PfCRTEcu1110 control), trans-stimulation, PfCRTEcu1110 oocytes, [test solute]i = 45 mM (30 mM for some solutes due to solubility), total [3H]CQ transport, normalised to the oocyte type control) of the same molecule?
**A.** 100 ± 3.2%

**Q.** And the activity at 5000 µM (PfCRT^Ecu1110 [2]; read-out: Uptake of [3H]CQ (% PfCRTDd2 control), trans-stimulation, PfCRTEcu1110, total [3H]CQ transport, [test solute]i = 5 mM (intracellular), mean ± SEM, SEM)?
**A.** 35 ± 1.3%

**Q.** And the activity at 45000 µM (PfCRT^Ecu1110 [2]; read-out: Uptake of [3H]CQ (% PfCRTDd2 control), trans-stimulation, PfCRTEcu1110, total [3H]CQ transport, [test solute]i = 45 mM (intracellular; 30 mM for some solutes due to solubility), mean ± SEM, SEM)?
**A.** 36 ± 2.2%

**Q.** And the activity at 5000 µM (PfCRT^Dd2 [3]; pH 5.5, read-out: Uptake of [3H]CQ (% PfCRTDd2 control), trans-stimulation, PfCRTDd2, total [3H]CQ transport, [test solute]i = 5 mM (intracellular), mean ± SEM, SEM)?
**A.** 100 ± 3.2%

**Q.** What about the activity at 5000 µM (PfCRT^Dd2 [3]; pH 5.5, read-out: Uptake of [3H]CQ (% PfCRTDd2 control), trans-stimulation, PfCRTDd2 oocytes, [test solute]i = 5 mM, total [3H]CQ transport, normalised to the oocyte type control) of the same molecule?
**A.** 100 ± 3.2%

**Q.** What about the activity at 45000 µM (PfCRT^Dd2 [3]; pH 5.5, read-out: Uptake of [3H]CQ (% PfCRTDd2 control), trans-stimulation, PfCRTDd2 oocytes, [test solute]i = 45 mM (30 mM for some solutes due to solubility), total [3H]CQ transport, normalised to the oocyte type control) of the same molecule?
**A.** 99 ± 1%

**Q.** And the activity at 5000 µM (PfNT1; [11])?
**A.** 2.2 ± 0.06%

**Q.** What about the activity at 45000 µM (PfNT1; [11]) of the same molecule?
**A.** 2.7 ± 0.04%

**Q.** And the activity at 5000 µM (PfNT1; [12])?
**A.** 100 ± 2.5%

**Q.** What about the activity at 45000 µM (PfNT1; [12]) of the same molecule?
**A.** 99 ± 2.6%

**Q.** And the “[3H]CQ transport (% PfCRT3D7 control), trans-stimulation, PfCRT3D7” value (PfCRT^3D7 [4]; SEM)?
**A.** 0.3 ± 0.03 % PfCRT3D7 control

**Q.** And the activity at 5000 µM (PfCRT^3D7 [4]; [13])?
**A.** 97 ± 2.1%

**Q.** What about the activity at 45000 µM (PfCRT^3D7 [4]; [13]) of the same molecule?
**A.** 97 ± 2.7%

**Q.** And the activity at 5000 µM (PfCRT^3D7 [4]; [14])?
**A.** 99 ± 3.6%

**Q.** What about the activity at 45000 µM (PfCRT^3D7 [4]; [14]) of the same molecule?
**A.** 99 ± 3.1%

**Q.** And the activity at 5000 µM (PfCRT^3D7 [4]; [15])?
**A.** 3.3 ± 0.03%

**Q.** And the activity at 45000 µM (PfCRT^3D7 [4]; [15])?
**A.** 3.3 ± 0.02%

**Q.** And the “Tested as potential co-substrate but not required for influx of VF-6 via PfCRT into the oocyte” value (PfCRT [5])?
**A.** X

**Q.** What about the inhibition at 500 µM (non-expressing oocytes [6]; [16]) of the same molecule?
**A.** 2.7 ± 0.03%

**Q.** And the inhibition at 1000 µM (non-expressing oocytes [6]; [16])?
**A.** 2.5 ± 0.01%

**Q.** And the inhibition at 2000 µM (non-expressing oocytes [6]; [16])?
**A.** 2.9 ± 0.04%

**Q.** And the inhibition at 500 µM (non-expressing oocytes [6]; [17])?
**A.** 99 ± 3.6%

**Q.** What about the inhibition at 1000 µM (non-expressing oocytes [6]; [17]) of the same molecule?
**A.** 99 ± 3.5%

**Q.** And the inhibition at 2000 µM (non-expressing oocytes [6]; [17])?
**A.** 101 ± 4.6%

**Q.** And the inhibition at 500 µM (PfCRT^Ecu1110 [7]; [18])?
**A.** 94 ± 4.4%

**Q.** What about the inhibition at 1000 µM (PfCRT^Ecu1110 [7]; [18]) of the same molecule?
**A.** 95 ± 3.1%

**Q.** What about the inhibition at 2000 µM (PfCRT^Ecu1110 [7]; [18]) of the same molecule?
**A.** 98 ± 1.5%

**Q.** What about the inhibition at 500 µM (PfCRT^Ecu1110 [7]; [19]) of the same molecule?
**A.** 31 ± 1.5%

**Q.** What about the inhibition at 1000 µM (PfCRT^Ecu1110 [7]; [19]) of the same molecule?
**A.** 32 ± 1.1%

**Q.** And the inhibition at 2000 µM (PfCRT^Ecu1110 [7]; [19])?
**A.** 33 ± 1.2%

**Q.** And the inhibition at 500 µM (PfCRT^Ecu1110 [7]; [20])?
**A.** 96 ± 2.5%

**Q.** What about the inhibition at 1000 µM (PfCRT^Ecu1110 [7]; [20]) of the same molecule?
**A.** 97 ± 5.3%

**Q.** What about the inhibition at 2000 µM (PfCRT^Ecu1110 [7]; [20]) of the same molecule?
**A.** 100 ± 2.5%

**Q.** And the inhibition at 500 µM (PfCRT^Ecu1110 [7]; [21])?
**A.** 28 ± 0.5%

**Q.** And the inhibition at 1000 µM (PfCRT^Ecu1110 [7]; [21])?
**A.** 29 ± 0.5%

**Q.** And the inhibition at 2000 µM (PfCRT^Ecu1110 [7]; [21])?
**A.** 30 ± 0.5%

**Q.** What about the inhibition at 500 µM (PfCRT^Dd2 [8]; [22]) of the same molecule?
**A.** 96 ± 3.6%

**Q.** And the inhibition at 2000 µM (PfCRT^Dd2 [8]; [22])?
**A.** 95 ± 5.1%

**Q.** What about the inhibition at 500 µM (PfCRT^Dd2 [8]; [23]) of the same molecule?
**A.** 98 ± 2.4%

**Q.** What about the inhibition at 1000 µM (PfCRT^Dd2 [8]; [23]) of the same molecule?
**A.** 100 ± 2.1%

**Q.** What about the inhibition at 2000 µM (PfCRT^Dd2 [8]; [23]) of the same molecule?
**A.** 97 ± 2.4%

**Q.** What about the “Tested as potential co-substrate but not required for influx of VF-6 via PfCRT into the oocyte” value (PfCRT [9]) of the same molecule?
**A.** X

**Q.** What about the inhibition at 500 µM (PfCRT^3D7 [10]; [24]) of the same molecule?
**A.** 100 ± 3.6%

**Q.** What about the inhibition at 1000 µM (PfCRT^3D7 [10]; [24]) of the same molecule?
**A.** 100 ± 3.3%

**Q.** What about the inhibition at 2000 µM (PfCRT^3D7 [10]; [24]) of the same molecule?
**A.** 102 ± 2.5%

**Q.** What about the inhibition at 500 µM (PfCRT^3D7 [10]; [25]) of the same molecule?
**A.** 2.4 ± 0.07%

**Q.** And the inhibition at 1000 µM (PfCRT^3D7 [10]; [25])?
**A.** 2.2 ± 0.06%

**Q.** And the inhibition at 2000 µM (PfCRT^3D7 [10]; [25])?
**A.** 3.4 ± 0.07%

Source: paper PMC7413254 (Nature Communications, 2020)
